pIC50: −log10 of the molar value.
How the values were obtained:
Assay in all cases: IMAP-Based HTS FP Assay/ TR-FRET Assay
[1] = molecular target: Cyclin-dependent kinase 7 (Homo sapiens, UniProt P50613)
Text: (§1) An IMAP-based PKD HTS FR assay was used for primary HTS of the PMLSC library to identify hit compounds and subsequent secondary hit confirmation studies.

[2] = molecular target: RAC-alpha serine/threonine-protein kinase (Homo sapiens, UniProt P31749)
Text: as §1

[3] = molecular target: T1, Serine/threonine-protein kinase D1 (Homo sapiens, UniProt Q15139)
T1 sequence (Q15139 whole entry): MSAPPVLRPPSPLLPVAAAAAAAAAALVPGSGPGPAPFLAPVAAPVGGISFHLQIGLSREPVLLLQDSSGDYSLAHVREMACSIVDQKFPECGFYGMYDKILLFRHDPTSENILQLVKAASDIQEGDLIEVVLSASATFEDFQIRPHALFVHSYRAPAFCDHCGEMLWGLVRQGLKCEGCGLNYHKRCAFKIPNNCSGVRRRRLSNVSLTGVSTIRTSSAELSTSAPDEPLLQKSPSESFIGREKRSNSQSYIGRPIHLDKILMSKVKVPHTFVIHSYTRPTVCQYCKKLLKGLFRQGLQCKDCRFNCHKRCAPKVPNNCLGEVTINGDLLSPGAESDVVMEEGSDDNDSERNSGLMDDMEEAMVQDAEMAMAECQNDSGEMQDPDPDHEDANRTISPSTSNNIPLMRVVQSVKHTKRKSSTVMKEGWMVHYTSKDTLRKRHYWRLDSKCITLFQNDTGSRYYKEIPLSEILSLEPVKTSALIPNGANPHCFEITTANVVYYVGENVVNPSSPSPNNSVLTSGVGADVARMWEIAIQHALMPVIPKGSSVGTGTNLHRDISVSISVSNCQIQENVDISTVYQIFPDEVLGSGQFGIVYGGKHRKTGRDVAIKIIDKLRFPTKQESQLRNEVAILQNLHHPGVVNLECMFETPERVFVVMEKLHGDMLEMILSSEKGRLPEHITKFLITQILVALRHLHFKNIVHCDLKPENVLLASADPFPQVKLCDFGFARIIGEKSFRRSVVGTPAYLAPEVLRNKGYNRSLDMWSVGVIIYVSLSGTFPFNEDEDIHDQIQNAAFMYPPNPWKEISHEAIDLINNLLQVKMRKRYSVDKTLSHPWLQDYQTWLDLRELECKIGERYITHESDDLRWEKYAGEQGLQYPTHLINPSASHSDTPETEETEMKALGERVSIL
Text: as §1

[4] = molecular target: Serine/threonine-protein kinase PLK1 (Homo sapiens, UniProt P53350)
Text: as §1

Serine/threonine-protein kinase PLK1, sequence (P53350 whole entry): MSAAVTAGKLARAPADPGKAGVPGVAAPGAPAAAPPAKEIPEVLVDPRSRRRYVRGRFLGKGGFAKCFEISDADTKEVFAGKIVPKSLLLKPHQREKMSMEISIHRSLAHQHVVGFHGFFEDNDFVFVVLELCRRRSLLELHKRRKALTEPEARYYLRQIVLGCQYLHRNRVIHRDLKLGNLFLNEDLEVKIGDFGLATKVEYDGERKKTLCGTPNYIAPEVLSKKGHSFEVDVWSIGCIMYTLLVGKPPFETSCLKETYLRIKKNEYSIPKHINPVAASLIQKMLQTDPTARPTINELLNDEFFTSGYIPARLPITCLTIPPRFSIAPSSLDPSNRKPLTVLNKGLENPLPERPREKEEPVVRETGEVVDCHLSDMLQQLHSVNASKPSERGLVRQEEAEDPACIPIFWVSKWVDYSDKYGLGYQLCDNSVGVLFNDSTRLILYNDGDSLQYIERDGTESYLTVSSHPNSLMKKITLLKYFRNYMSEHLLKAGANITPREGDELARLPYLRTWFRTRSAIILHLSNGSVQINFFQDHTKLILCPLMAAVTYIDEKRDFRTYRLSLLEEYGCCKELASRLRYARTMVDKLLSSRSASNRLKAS
Cyclin-dependent kinase 7, sequence (P50613 whole entry): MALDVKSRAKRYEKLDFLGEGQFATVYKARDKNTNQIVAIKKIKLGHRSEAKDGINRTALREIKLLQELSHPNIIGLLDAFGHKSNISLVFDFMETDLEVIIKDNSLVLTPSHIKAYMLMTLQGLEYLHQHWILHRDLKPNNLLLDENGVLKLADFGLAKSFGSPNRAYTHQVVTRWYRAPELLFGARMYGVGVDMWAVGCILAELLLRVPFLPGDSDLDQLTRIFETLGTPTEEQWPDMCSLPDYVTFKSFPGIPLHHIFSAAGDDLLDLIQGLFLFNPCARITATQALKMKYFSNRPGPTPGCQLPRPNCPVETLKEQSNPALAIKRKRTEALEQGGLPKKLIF
RAC-alpha serine/threonine-protein kinase, sequence (P31749 whole entry): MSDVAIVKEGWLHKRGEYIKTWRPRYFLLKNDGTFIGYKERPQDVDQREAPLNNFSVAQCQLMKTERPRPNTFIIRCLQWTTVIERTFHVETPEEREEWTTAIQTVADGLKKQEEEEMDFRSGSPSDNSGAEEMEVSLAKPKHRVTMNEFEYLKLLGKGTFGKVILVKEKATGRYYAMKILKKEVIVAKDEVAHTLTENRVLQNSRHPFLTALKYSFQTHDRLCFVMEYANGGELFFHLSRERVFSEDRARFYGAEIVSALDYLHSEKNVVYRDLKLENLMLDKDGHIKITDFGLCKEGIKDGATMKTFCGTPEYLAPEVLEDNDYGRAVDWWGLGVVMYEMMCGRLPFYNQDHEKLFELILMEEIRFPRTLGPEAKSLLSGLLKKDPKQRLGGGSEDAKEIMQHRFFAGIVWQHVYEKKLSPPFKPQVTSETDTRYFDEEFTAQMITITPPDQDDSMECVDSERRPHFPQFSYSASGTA

SMILES	pIC50 [1]	pIC50 [2]	pIC50 [3]	pIC50 [4]
O=C1NCCCc2c1oc1ccc(O)cc21 [7-hydroxy-2,3,4,5-tetrahydro-[1]benzofuro[2,3-c]azepin-1-one]	4.82	< 4.30	6.30	4.69
O=c1oc2ccc(O)cc2c2c1NCCC2 [CID 797718]	5.08	< 4.30		4.66

Source: BindingDB's records for doi:10.1074/jbc.M805358200 (University of Pittsburgh, 2008)
